According to patent US12091411B2, “IRAK degraders and uses thereof” (Kymera Therapeutics, Inc., priority 2022, dated 2024):
Where two headings read alike, the source gives them in different places.

Molecular target: T1, IRAK4 (Homo sapiens, UniProt Q9NWZ3)
T1 construct: Degradation of IRAK4 in OCI-LY10 was quantitatively measured using Meso Scale Discovery technology; endogenous in cells; host or cells: OCI-LY10
T1 sequence (Q9NWZ3 1-460): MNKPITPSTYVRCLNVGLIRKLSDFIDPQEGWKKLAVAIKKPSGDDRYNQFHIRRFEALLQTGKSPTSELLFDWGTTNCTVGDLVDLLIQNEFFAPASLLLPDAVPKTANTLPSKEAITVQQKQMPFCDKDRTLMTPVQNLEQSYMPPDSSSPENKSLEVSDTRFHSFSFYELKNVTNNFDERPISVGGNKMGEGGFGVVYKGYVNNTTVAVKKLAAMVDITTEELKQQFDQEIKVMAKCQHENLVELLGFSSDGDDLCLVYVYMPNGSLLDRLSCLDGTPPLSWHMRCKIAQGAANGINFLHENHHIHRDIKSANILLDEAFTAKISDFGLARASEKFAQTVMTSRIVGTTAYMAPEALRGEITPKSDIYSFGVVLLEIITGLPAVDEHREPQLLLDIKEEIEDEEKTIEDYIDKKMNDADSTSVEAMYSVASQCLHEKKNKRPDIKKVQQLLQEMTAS
Assay: IRAK4 MSD Degradation in OCI-LY10
Assay type: cell-based
Settings: OCI-LY10 cells, MSD
Method in brief: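 DC50, from a three-parameter logistic fit and reported as letter bins A (<0.01 μM), B, C, D (>0.2 μM or not tested), reflects IRAK4 loss measured by MSD electrochemiluminescence in OCI-LY10 lysates. Treatment: 8 doses, 1:3 steps, top 1 to 10 μM, 4 to 24 h, 37 °C.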

[1] = 4 hrs incubation, read-out: IRAK4 degradation in OCI-LY10 at 4 hrs: DC50
[2] = 24 hrs incubation, read-out: IRAK4 degradation in OCI-LY10 at 24 hrs: DC50

Compound	DC50 [1] [nM]	DC50 [2] [nM]
Cn1c(=O)n(C2CCC(=O)NC2=O)c2cccc(C#CCN3CCN(C[C@H]4CC[C@H](n5cc(NC(=O)c6cnn7ccc(C8CCC8)nc67)c(C(F)F)n5)CC4)CC3)c21 (stereo partly drawn) [I-109]	10 to 100	> 200
CCc1ccn2ncc(C(=O)Nc3cn([C@H]4CC[C@H](CN5CCN(CC#Cc6cccc7c6n(C)c(=O)n7C6CCC(=O)NC6=O)CC5)CC4)nc3C(F)F)c2n1 (stereo partly drawn) [I-110]	10 to 100	10 to 100
Cn1c(=O)n(C2CCC(=O)NC2=O)c2cccc(C#CCN3CCN(C[C@H]4CC[C@H](n5cc(NC(=O)c6cnn7ccc(N8CCOC(C)(C)C8)nc67)c(C(F)F)n5)CC4)CC3)c21 (stereo partly drawn) [I-111]	< 10	> 200
Cc1ccc(-c2nn([C@H]3CC[C@H](CN4CCN(CC#Cc5cccc6c5n(C)c(=O)n6C5CCC(=O)NC5=O)CC4)CC3)cc2NC(=O)c2cnn3cccnc23)nc1 (stereo partly drawn) [I-113]	> 200	< 10
Cc1ccc(-c2nn([C@H]3CC[C@H](CN4CCN(CC#Cc5cccc6c5n(C)c(=O)n6C5CCC(=O)NC5=O)CC4)CC3)cc2NC(=O)c2cnn3cccnc23)c(F)c1 (stereo partly drawn) [I-116]	> 200	10 to 100
Cc1ccc(-c2nn([C@H]3CC[C@H](CN4CCN(CC#Cc5cccc6c5n(C)c(=O)n6C5CCC(=O)NC5=O)CC4)CC3)cc2NC(=O)c2cnn3cccnc23)cc1 (stereo partly drawn) [I-118]	> 200	10 to 100
C[C@@H]1CN(CCCc2cccc3c2n(C)c(=O)n3C2CCC(=O)NC2=O)CCN1C[C@H]1CC[C@H](n2cc(NC(=O)c3cnn4ccc(N5C[C@H]6C[C@@H]5CO6)nc34)c(C(F)F)n2)CC1 (stereo partly drawn) [I-119]	> 200	> 200
C[C@H]1CN(CCCc2cccc3c2n(C)c(=O)n3C2CCC(=O)NC2=O)CCN1C[C@H]1CC[C@H](n2cc(NC(=O)c3cnn4ccc(N5C[C@H]6C[C@@H]5CO6)nc34)c(C(F)F)n2)CC1 (stereo partly drawn) [I-120]	> 200	> 200
COc1nn([C@H]2CC[C@H](CN3CCN(CC#Cc4cccc5c4n(C)c(=O)n5C4CCC(=O)NC4=O)CC3)CC2)cc1NC(=O)c1cnn2ccc(N3C[C@H]4C[C@@H]3CO4)nc12 (stereo partly drawn) [I-121]	100 to 200	> 200
Cc1ccc(-c2nn([C@H]3CC[C@H](CN4CCN(CC#Cc5cccc6c5n(C)c(=O)n6C5CCC(=O)NC5=O)CC4)CC3)cc2NC(=O)c2cnn3cccnc23)nc1 (stereo partly drawn) [I-122]	> 200	10 to 100
O=C1CCN(c2cccc(C#CCN3CCN(C[C@H]4CC[C@H](n5cc(NC(=O)c6cnn7ccc(N8C[C@H]9C[C@@H]8CO9)nc67)c(C(F)F)n5)CC4)CC3)c2)C(=O)N1 [I-123]	> 200	> 200
O=C1CCN(c2ccc(C#CCN3CCN(C[C@H]4CC[C@@H](n5cc(NC(=O)c6cnn7ccc(N8C[C@@H]9C[C@H]8CO9)nc67)c(C(F)F)n5)CC4)CC3)cc2)C(=O)N1 [I-124]	> 200	> 200
O=C1CCC(c2cccc(C#CCN3CCN(C[C@H]4CC[C@@H](n5cc(NC(=O)c6cnn7ccc(N8C[C@@H]9C[C@H]8CO9)nc67)c(C(F)F)n5)CC4)CC3)c2)C(=O)N1 (stereo partly drawn) [I-125]	> 200	> 200
O=C1CCC(c2ccc(C#CCN3CCN(C[C@H]4CC[C@@H](n5cc(NC(=O)c6cnn7ccc(N8C[C@@H]9C[C@H]8CO9)nc67)c(C(F)F)n5)CC4)CC3)cc2)C(=O)N1 (stereo partly drawn) [I-126]	> 200	> 200
Cn1c(=O)n(C2CCC(=O)NC2=O)c2cccc(C#CCO[C@@H]3CCCN(C[C@H]4CC[C@H](n5cc(NC(=O)c6cnn7ccc(N8C[C@H]9C[C@@H]8CO9)nc67)c(C(F)F)n5)CC4)C3)c21 (stereo partly drawn) [I-127]	100 to 200	> 200
Cn1c(=O)n(C2CCC(=O)NC2=O)c2cccc(C#CCO[C@H]3CCCN(C[C@H]4CC[C@H](n5cc(NC(=O)c6cnn7ccc(N8C[C@H]9C[C@@H]8CO9)nc67)c(C(F)F)n5)CC4)C3)c21 (stereo partly drawn) [I-128]	10 to 100	> 200

Compound	DC50 [1] [nM]	DC50 [2] [nM]
CN1C(=O)C(C2CCC(=O)NC2=O)c2cccc(N3CCN(CC4CCC(n5cc6cc(NC(=O)c7cccc(C(F)(F)F)n7)c(S(C)(=N)=O)cc6n5)CC4)CC3)c21 (stereo not drawn) [I-129]	< 10	> 200
CC(C)(O)c1cc2nn([C@H]3CC[C@H](CN4CCC5(CC4)CC(CCNc4cccc6c4C(=O)N(C4CCC(=O)NC4=O)C6=O)C5)CC3)cc2cc1NC(=O)c1cccc(C(F)(F)F)n1 (stereo partly drawn) [I-130]	> 200	10 to 100
COc1cc2nn([C@H]3CC[C@H](CN4CC(c5cccc6c5n(C)c(=O)n6C5CCC(=O)NC5=O)C4)CC3)cc2cc1NC(=O)c1nc(C(C)(C)F)ccc1OC (stereo partly drawn) [I-131]	> 200	> 200
COc1cc2nn([C@H]3CC[C@H](CN4CC(c5c(OC)ccc6c5n(C)c(=O)n6C5CCC(=O)NC5=O)C4)CC3)cc2cc1NC(=O)c1cccc(C(C)(C)F)n1 (stereo partly drawn) [I-132]	> 200	> 200
COc1cc2nn([C@H]3CC[C@H](CN4CC(c5cccc6c5n(C)c(=O)n6C5CCC(=O)NC5=O)C4)CC3)cc2cc1NC(=O)c1cncc(C(C)(C)F)n1 (stereo partly drawn) [I-134]	> 200	> 200
COc1cc2nn([C@H]3CC[C@H](CN4CC(c5cncc6c5n(C)c(=O)n6C5CCC(=O)NC5=O)C4)CC3)cc2cc1NC(=O)c1cccc(C(C)(C)F)n1 (stereo partly drawn) [I-135]	> 200	> 200
COc1cc2nn([C@H]3CC[C@H](CN4CC(c5cccc6c5n(C)c(=O)n6C5CCC(=O)NC5=O)C4)CC3)cc2cc1NC(=O)c1nc(C(C)(C)F)ccc1OC (stereo partly drawn) [I-136]	> 200	–
COc1ccc(C(F)(F)F)nc1C(=O)Nc1cc2cn([C@H]3CC[C@@H](CN4CCC5(CC4)CC(CNc4cccc6c4C(=O)N(C4CCC(=O)NC4=O)C6=O)C5)CC3)nc2cc1C(C)(C)O (stereo partly drawn) [I-137]	> 200	10 to 100
COc1cc2nn([C@H]3CC[C@H](CN4CCC5(CC4)CC(Oc4cccc6c4C(=O)N(C4CCC(=O)NC4=O)C6=O)C5)CC3)cc2cc1NC(=O)c1cccc(C(F)(F)F)n1 (stereo partly drawn) [I-138]	> 200	< 10
CC(C)(O)c1cc2nn([C@H]3CC[C@H](CNCCCCCCCNc4cccc5c4C(=O)N(C4CCC(=O)NC4=O)C5=O)CC3)cc2cc1NC(=O)c1cccc(C(F)(F)F)n1 (stereo partly drawn) [I-139]	> 200	10 to 100
COc1cc2nn([C@H]3CC[C@H](CN4CCC5(CC4)CC(Nc4cccc6c4C(=O)N(C4CCC(=O)NC4=O)C6=O)C5)CC3)cc2cc1NC(=O)c1ccccn1 (stereo partly drawn) [I-140]	> 200	10 to 100
COc1cc2nn([C@H]3CC[C@H](CN4CCC5(CC4)CC(N(C)c4cccc6c4C(=O)N(C4CCC(=O)NC4=O)C6=O)C5)CC3)cc2cc1NC(=O)c1cccc(C(F)(F)F)n1 (stereo partly drawn) [I-141]	> 200	10 to 100
CC(C)(O)c1cc2nn(C3CCC(CNCCCCCNc4cccc5c4C(=O)N(C4CCC(=O)NC4=O)C5=O)CC3)cc2cc1NC(=O)c1cccc(C(F)(F)F)n1 (stereo not drawn) [I-142]	> 200	< 10
CC(C)(O)c1cc2nn([C@H]3CC[C@H](CNCCCCCCNc4cccc5c4C(=O)N(C4CCC(=O)NC4=O)C5=O)CC3)cc2cc1NC(=O)c1cccc(C(F)(F)F)n1 (stereo partly drawn) [I-143]	> 200	< 10
CC(C)(O)c1cc2nn([C@H]3CC[C@H](CNCCNc4cccc5c4C(=O)N(C4CCC(=O)NC4=O)C5=O)CC3)cc2cc1NC(=O)c1cccc(C(F)(F)F)n1 (stereo partly drawn) [I-144]	< 10	< 10
CN(CCCCNc1cccc2c1C(=O)N(C1CCC(=O)NC1=O)C2=O)C[C@H]1CC[C@H](n2cc3cc(NC(=O)c4cccc(C(F)(F)F)n4)c(C(C)(C)O)cc3n2)CC1 (stereo partly drawn) [I-145]	< 10	< 10
